Reference: US20250382250A1, “STILBENE DERIVATIVE AS AHR AGONIST AND USE THEREOF” (NANJING GRITPHARMACO., LTD., priority 2022, published 2025)
Marks after values point to notes of the source that are not given here.

Experiments:
IL4 = assay: Regulatory effect on cytokine secretion in PHA-stimulated PBMCs: IL4; format: cell-based; details: for IL4: PBMCs, 15 μg/mL PHA, 24 h (PHA group 9.42)
Experimental: (§1) • (1) Cells: […]; • (2) Cell plating and treatment: After the PBMCs were taken out from the liquid nitrogen tank and thawed, 80 μL of culture medium was added to a 96-well plate, and the cells were added at 200,000 cells/well. The culture media containing 2 μM or 0.2 μM compound 2 #, compound 6 #, or reference 1 # were added to the 96-well plate at 80 μL, at a final drug concentration of 1 μM or 0.1 μM per well. The plate was let stand for 1 h for pretreatment. After the pretreatment, the drug-containing medium was discarded, and 1 μM or 0.1 μM solution containing 15 μg/mL PHA (phytohemaggluyinin) was added at 80 μL/well. After 24 h of stimulation, the content of cytokines in the culture medium was detected. • Blank control group: The cells were treated with a normal culture medium with no drugs; • PHA group: A culture medium containing 15 μg/mL PHA but no compounds of the present disclosure was added at 80 μL/well.

[1] = Ointment diffusion test, ex vivo rabbit skin; format: in vitro ADME; details: ointments: 2# 1.2 wt %, 6# 1.2 wt %, benvitimod 1.0 wt %, 32° C.
Experimental: (§2) Test compounds: compound 2 #ointment, 1.2 wt %; compound 6 #ointment, 1.2 wt %; benvitimod ointment, 1.0 wt %;
• (1) Preparation of ex vivo rabbit skin • (2) Preparation of receiving liquid: 100 mL of polyethylene glycol 400 solution was brought to a final volume of 250 mL with normal saline. The mixture was mixed well and stored at 4° C. Before each permeation in the receiving compartment, the system was preheated to 32° C. • (3) In vitro transdermal test: A drug transdermal diffusion apparatus was used to fix the processed rabbit skin between the supply and receiving compartments, with the stratum corneum facing the supply compartment. A constant temperature water bath circulation at 32° C. was maintained. The system was equilibrated for 30 min. Upon each replacement of the receiving liquid, the air at the lower layer was exhausted, and the liquid droplets on the skin surface were removed with paper. 0.5 g of the ointment was evenly smeared in the supply compartment. The system was stirred with a magnetic stirring at a rotation speed of 600 r/min. At 0.5, 1, 2, 3, 4, 5, 7, 9, 12, and 24 h, 1 mL of sample liquid was taken out from the receiving compartment and transferred into a liquid phase vial, and simultaneously, an equal amount of fresh receiving liquid at the same temperature was added. The liquid phase detection was conducted to calculate the drug permeation rate.

AhR = biological target: T1, AhR (Homo sapiens, UniProt P35869); assay: AhR agonism luciferase reporter gene assay in transfected HepG2 cells; format: cell-based; details: 16 h, ratio of treatment group to blank
T1 construct: expressed in transfected cells; host or cells: HepG2
T1 sequence (P35869 11-848): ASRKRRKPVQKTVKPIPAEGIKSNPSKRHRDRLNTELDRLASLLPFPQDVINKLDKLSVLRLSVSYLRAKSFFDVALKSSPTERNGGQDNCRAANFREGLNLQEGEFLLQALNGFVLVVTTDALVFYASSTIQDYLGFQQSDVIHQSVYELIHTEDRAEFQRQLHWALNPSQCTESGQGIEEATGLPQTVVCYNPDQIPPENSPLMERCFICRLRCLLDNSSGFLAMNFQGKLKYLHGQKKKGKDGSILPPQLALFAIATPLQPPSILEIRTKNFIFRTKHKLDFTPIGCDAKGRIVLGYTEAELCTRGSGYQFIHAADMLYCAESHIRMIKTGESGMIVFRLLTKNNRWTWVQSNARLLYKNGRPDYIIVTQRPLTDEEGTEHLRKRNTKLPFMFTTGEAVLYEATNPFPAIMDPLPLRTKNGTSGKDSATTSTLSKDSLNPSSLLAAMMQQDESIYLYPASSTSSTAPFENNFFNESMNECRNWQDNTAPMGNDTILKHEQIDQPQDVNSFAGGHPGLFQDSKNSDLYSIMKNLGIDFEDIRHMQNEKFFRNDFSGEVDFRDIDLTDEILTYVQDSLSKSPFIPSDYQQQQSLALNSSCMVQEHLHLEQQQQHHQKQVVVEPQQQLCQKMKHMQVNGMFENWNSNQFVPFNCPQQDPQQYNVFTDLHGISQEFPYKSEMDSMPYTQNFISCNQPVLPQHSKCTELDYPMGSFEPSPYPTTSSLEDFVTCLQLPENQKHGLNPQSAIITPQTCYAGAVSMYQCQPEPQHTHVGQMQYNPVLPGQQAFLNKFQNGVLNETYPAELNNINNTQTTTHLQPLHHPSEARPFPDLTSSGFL
Experimental: When the cell confluence reached 80%, the culture medium was replaced with a fresh one, and the transfection working solution was added for transfection overnight. The formula of the working solution is as follows: 1 mL of Opti-MEM+7.5 μg of pCMV-AHR+7.5 μg of pTK-3×DRE-Luc+30 μL of lipo6000. • (2) Cell plating: The transfected cells were digested, prepared into a cell suspension at a concentration of 3×10^5 cells/mL, and then plated on a 96-well plate at 100 µL/well for adherent culture overnight. • (3) Formulation
The prepared drug-containing culture media and a blank culture medium were added to the 96-well plate described above at 100 μL/well.

atopic dermatitis = assay: DNFB-induced atopic dermatitis mouse model (AD Score); format: in vivo, BALB/C mice; set-up: scale not given here; details: DNFB mice
Experimental: 56 clean-grade BALB/C mice aged 6-8 weeks were subjected to 5 days of adaptive feeding and then randomized into 7 groups of 8 mice each: • A. Blank control group • B. Modeling+solvent group • C. Modeling+blank matrix group • D. Modeling+positive drug mometasone furoate group • E. Modeling+1 wt % of benvitimod group • F. […] The animal experiments were conducted in accordance with the Experimental Animal Feeding, Management and Use Guidelines of China Pharmaceutical University and in compliance with animal study ethics and regulations. As shown in the above procedures, the solvent control or DNFB was given in the morning for modeling; from day 5, the test compound ointment was administered once every afternoon at 50 mg/dose evenly on the skin surface. The specific administration method is as shown above; Specific procedures: […] Severity of atopic dermatitis was scored using the AD Score criteria The severity of the appearance of dermatitis was evaluated based on 4 indicators: A. erythema/bleeding; B. dryness; C. effusion/crusting; D. edema.

TNFa = assay: Regulatory effect on cytokine secretion in PHA-stimulated PBMCs: TNFa; format: cell-based; details: for TNFa: PBMCs, 15 μg/mL PHA, 24 h (PHA group 3649.21)
Experimental: as §1

[2] = Drug permeation rate test, in vitro diffusion through semipermeable membrane; format: in vitro ADME; details: ointments: 2# 1.2 wt %, 6# 1.2 wt %, benvitimod 1.0 wt %, 32° C.
Experimental: as §2
[drawing 90] • (1) Preparation of semipermeable membrane: The semipermeable membrane, which had been prepared in advance, was taken out from the refrigerator; • (2) Preparation of receiving liquid: 100 mL of polyethylene glycol 400 solution was brought to a final volume of 250 mL with normal saline. The mixture was mixed well and stored at 4° C. Before each permeation in the receiving compartment, the system was preheated to 32° C.; • (3) In vitro diffusion test: A drug transdermal diffusion apparatus was used to fix the processed semipermeable membrane between the supply and receiving compartments. A constant temperature water bath circulation at 32° C. was maintained. The system was equilibrated for 30 min. Upon each replacement of the receiving liquid, the air at the lower layer was exhausted. About 0.5 g of the ointment was evenly smeared in the supply compartment. The system was stirred with a magnetic stirring at a rotation speed of 600 r/min. At 0.5, 1, 2, 4, 6, and 24 h, 1 mL of sample liquid was taken out from the receiving compartment, and simultaneously, an equal amount of fresh receiving liquid at the same temperature was added;
The sampling time points were 0.5, 1, 2, 4, 6, and 24 h, and 1 mL of sample was directly transferred into a liquid phase vial. Simultaneously, an equal amount of fresh receiving liquid at the same temperature was added. The liquid phase detection was conducted to calculate the drug permeation rate.

## Oc1cc(/C=C/c2ccc(F)cc2)cc(O)c1C1CCCC1 [Compound 2, (E)-2-cyclopentyl-5-(4-fluorostyryl)-1,3-benzenediol]
IL4; 0.1 μM
  IL4: 5.19 pg/mL
IL4; 1 μM
  inhibitory effect on IL4 relative to reference 1# (benvitimod): 2 folds
  IL4: 4.30 pg/mL
[1]
  24-hour drug permeation rate (rank order): benvitimod >2 #>6 #
AhR; drug concentration 0.1 μM
  AhR receptor agonistic fold: 6.1 ± 0.6 fold
AhR; drug concentration 1 μM
  AhR receptor agonistic fold: 37.9 ± 6.9 fold
Atopic dermatitis; day 0, before ointment treatment (from day 5)
  Back AD score: 0.00 ± 0.00
Atopic dermatitis; day 4, before ointment treatment (from day 5)
  Back AD score: 3.19 ± 0.75
Atopic dermatitis; day 6, ointment 50 mg once daily from day 5 (1.2 wt % 2#/6#, 1 wt % benvitimod)
  Back AD score: 5.63 ± 1.96
Atopic dermatitis; day 8, ointment 50 mg once daily from day 5 (1.2 wt % 2#/6#, 1 wt % benvitimod)
  Back AD score: 6.13 ± 1.96**^aab
Atopic dermatitis; day 10, ointment 50 mg once daily from day 5 (1.2 wt % 2#/6#, 1 wt % benvitimod)
  Back AD score: 5.31 ± 1.87**^aab
TNFa; 0.1 μM
  TNFa: 1353.72 pg/mL
TNFa; 1 μM
  inhibitory effect on TNFa relative to reference 1# (benvitimod): 2 folds
  TNFa: 941.41 pg/mL
[2]
  24-hour drug permeation rate (rank order): benvitimod >2 #>6 #
